Values quoted from earlier work, collected in patent US20020064834A1, “Microbiological production method for alpha-L-aspartyl-L-phenylalanine” (priority 1999, published 2002).
Residues, ends and D or L forms follow the SMILES beside them.

Settings: relative to sucrose

SMILES: COC(=O)[C@H](Cc1ccccc1)NC(=O)[C@@H](N)CC(=O)O [APM, α-L-aspartyl-L-phenylalanine methyl ester] (H-Asp-Phe-OMe)
- sweetness as potent as the sweetness of sucrose: about 200 ×
